Reference: PubChem BioAssay (NCI)
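Step 1: Grow cells in 96-well plates. Step 2: Expose to compound for 48 hours at 5 concentrations. Step 3: Interpolate endpoints linearly; if unreached, use highest concentration. TGI denotes the concentration required for complete inhibition of growth.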

Tests used:
Test in all cases: growth of human tumour cells (NCI), 48 h
786-0 renal = system: 786-0 renal
A498 renal = system: A498 renal
A549 NSCLC = system: A549 NSCLC
ACHN renal = system: ACHN renal
BT-549 breast = system: BT-549 breast
CAKI-1 renal = system: CAKI-1 renal
COLO 205 colon = system: COLO 205 colon
DU-145 prostate = system: DU-145 prostate
EKVX NSCLC = system: EKVX NSCLC
HCC-2998 colon = system: HCC-2998 colon
HCT-116 colon = system: HCT-116 colon
HCT-15 colon = system: HCT-15 colon
HL-60(TB) leukemia = system: HL-60(TB) leukemia
HOP-62 NSCLC = system: HOP-62 NSCLC
HOP-92 NSCLC = system: HOP-92 NSCLC
HS 578T breast = system: HS 578T breast
HT29 colon = system: HT29 colon
IGROV1 ovarian = system: IGROV1 ovarian
K-562 leukemia = system: K-562 leukemia
KM12 colon = system: KM12 colon
LOX IMVI melanoma = system: LOX IMVI melanoma
M14 melanoma = system: M14 melanoma
MALME-3M melanoma = system: MALME-3M melanoma
MCF7 breast = system: MCF7 breast
MDA-MB-231 breast = system: MDA-MB-231 breast
MDA-MB-435 = system: MDA-MB-435
MDA-N = system: MDA-N
MOLT-4 leukemia = system: MOLT-4 leukemia
NCI-H226 lung = system: NCI-H226 lung
NCI-H23 lung = system: NCI-H23 lung
NCI-H460 lung = system: NCI-H460 lung
NCI-H522 lung = system: NCI-H522 lung
NCI/ADR-RES ovarian = system: NCI/ADR-RES ovarian
OVCAR-3 ovarian = system: OVCAR-3 ovarian
OVCAR-4 ovarian = system: OVCAR-4 ovarian
OVCAR-5 ovarian = system: OVCAR-5 ovarian
OVCAR-8 ovarian = system: OVCAR-8 ovarian
PC-3 prostate = system: PC-3 prostate
RPMI-8226 leukemia = system: RPMI-8226 leukemia
RXF 393 renal = system: RXF 393 renal
SF-268 CNS = system: SF-268 CNS
SF-295 CNS = system: SF-295 CNS
SF-539 CNS = system: SF-539 CNS
SK-MEL-2 melanoma = system: SK-MEL-2 melanoma
SK-MEL-28 melanoma = system: SK-MEL-28 melanoma
SK-MEL-5 melanoma = system: SK-MEL-5 melanoma
SK-OV-3 ovarian = system: SK-OV-3 ovarian
SN12C renal = system: SN12C renal
SNB-19 CNS = system: SNB-19 CNS
SNB-75 CNS = system: SNB-75 CNS
SR leukemia = system: SR leukemia
SW-620 colon = system: SW-620 colon
T-47D breast = system: T-47D breast
TK-10 renal = system: TK-10 renal
U251 CNS = system: U251 CNS
UACC-257 melanoma = system: UACC-257 melanoma
UACC-62 melanoma = system: UACC-62 melanoma
UO-31 renal = system: UO-31 renal
CCRF-CEM leukemia = system: CCRF-CEM leukemia

## Cc1ccc2c(c1)OC1Nc3ccccc3C1=C2O (centres undefined)
786-0 renal
  TGI: 66 µM
A498 renal
  TGI: 45.5 µM
A549 NSCLC
  TGI: > 100 µM
ACHN renal
  TGI: 60.8 µM
BT-549 breast
  TGI: 66.1 µM
CAKI-1 renal
  TGI: 97.5 µM
COLO 205 colon
  TGI: 29.2 µM
DU-145 prostate
  TGI: > 100 µM
EKVX NSCLC
  TGI: 86.9 µM
HCC-2998 colon
  TGI: 33.9 µM
HCT-116 colon
  TGI: 65.1 µM
HCT-15 colon
  TGI: > 100 µM
HL-60(TB) leukemia
  TGI: 43.1 µM
HOP-62 NSCLC
  TGI: > 100 µM
HOP-92 NSCLC
  TGI: > 100 µM
HS 578T breast
  TGI: > 100 µM
HT29 colon
  TGI: > 100 µM
IGROV1 ovarian
  TGI: > 100 µM
K-562 leukemia
  TGI: > 100 µM
KM12 colon
  TGI: > 100 µM
LOX IMVI melanoma
  TGI: 71.5 µM
M14 melanoma
  TGI: 68 µM
MALME-3M melanoma
  TGI: > 100 µM
MCF7 breast
  TGI: 45.9 µM
MDA-MB-231 breast
  TGI: 69.4 µM
MDA-MB-435
  TGI: 95.9 µM
MDA-N
  TGI: 68.1 µM
MOLT-4 leukemia
  TGI: > 100 µM
NCI-H226 lung
  TGI: 89.1 µM
NCI-H23 lung
  TGI: 74.6 µM
NCI-H460 lung
  TGI: 64.3 µM
NCI-H522 lung
  TGI: > 100 µM
NCI/ADR-RES ovarian
  TGI: 86.3 µM
OVCAR-3 ovarian
  TGI: 21.1 µM
OVCAR-4 ovarian
  TGI: > 100 µM
OVCAR-5 ovarian
  TGI: > 100 µM
OVCAR-8 ovarian
  TGI: > 100 µM
PC-3 prostate
  TGI: 39.6 µM
RPMI-8226 leukemia
  TGI: > 100 µM
RXF 393 renal
  TGI: 72.4 µM
SF-268 CNS
  TGI: > 100 µM
SF-295 CNS
  TGI: 60 µM
SF-539 CNS
  TGI: 44.4 µM
SK-MEL-2 melanoma
  TGI: 47.6 µM
SK-MEL-28 melanoma
  TGI: > 100 µM
SK-MEL-5 melanoma
  TGI: 34 µM
SK-OV-3 ovarian
  TGI: 64.3 µM
SN12C renal
  TGI: 93.4 µM
SNB-19 CNS
  TGI: > 100 µM
SNB-75 CNS
  TGI: > 100 µM
SR leukemia
  TGI: > 100 µM
SW-620 colon
  TGI: > 100 µM
T-47D breast
  TGI: 85 µM
TK-10 renal
  TGI: 78.3 µM
U251 CNS
  TGI: 57.5 µM
UACC-257 melanoma
  TGI: 69.3 µM
UACC-62 melanoma
  TGI: 48 µM
UO-31 renal
  TGI: 61.6 µM

## COc1ccc2c(c1)CCc1c-2n(CCN(C)C)c2ccc(OC)cc12
786-0 renal
  TGI: > 100 µM
A498 renal
  TGI: 41.1 µM
A549 NSCLC
  TGI: > 100 µM
ACHN renal
  TGI: > 100 µM
BT-549 breast
  TGI: > 100 µM
CAKI-1 renal
  TGI: > 100 µM
CCRF-CEM leukemia
  TGI: 9.5 µM
COLO 205 colon
  TGI: > 100 µM
DU-145 prostate
  TGI: > 100 µM
EKVX NSCLC
  TGI: > 100 µM
HCC-2998 colon
  TGI: > 100 µM
HCT-116 colon
  TGI: > 100 µM
HCT-15 colon
  TGI: > 100 µM
HOP-62 NSCLC
  TGI: 43.1 µM
HOP-92 NSCLC
  TGI: > 100 µM
HS 578T breast
  TGI: 77 µM
HT29 colon
  TGI: > 100 µM
IGROV1 ovarian
  TGI: 79.5 µM
K-562 leukemia
  TGI: > 100 µM
KM12 colon
  TGI: 86.7 µM
LOX IMVI melanoma
  TGI: > 100 µM
M14 melanoma
  TGI: > 100 µM
MALME-3M melanoma
  TGI: 53.5 µM
MCF7 breast
  TGI: 69.9 µM
MDA-MB-231 breast
  TGI: > 100 µM
MDA-MB-435
  TGI: 32.6 µM
MDA-N
  TGI: 95.2 µM
MOLT-4 leukemia
  TGI: 59.1 µM
NCI-H226 lung
  TGI: 10.6 µM
NCI-H23 lung
  TGI: 50.2 µM
NCI-H460 lung
  TGI: > 100 µM
NCI-H522 lung
  TGI: 75.9 µM
NCI/ADR-RES ovarian
  TGI: 46.1 µM
OVCAR-3 ovarian
  TGI: > 100 µM
OVCAR-4 ovarian
  TGI: 68.7 µM
OVCAR-5 ovarian
  TGI: 51.6 µM
OVCAR-8 ovarian
  TGI: 51 µM
PC-3 prostate
  TGI: 46 µM
RPMI-8226 leukemia
  TGI: 65.9 µM
SF-268 CNS
  TGI: > 100 µM
SF-295 CNS
  TGI: > 100 µM
SK-MEL-2 melanoma
  TGI: 40 µM
SK-MEL-28 melanoma
  TGI: 33.6 µM
SK-MEL-5 melanoma
  TGI: > 100 µM
SK-OV-3 ovarian
  TGI: 87.1 µM
SN12C renal
  TGI: > 100 µM
SNB-19 CNS
  TGI: 36.5 µM
SNB-75 CNS
  TGI: 76.5 µM
SR leukemia
  TGI: > 100 µM
SW-620 colon
  TGI: 74.5 µM
T-47D breast
  TGI: 85.4 µM
TK-10 renal
  TGI: 80.3 µM
U251 CNS
  TGI: 78.7 µM
UACC-257 melanoma
  TGI: > 100 µM
UACC-62 melanoma
  TGI: > 100 µM
UO-31 renal
  TGI: 47.8 µM
